Paper PMC12609600, “Novel Halolactones Derived from Vanillin: Design, Synthesis, Structural Characterization, and Evaluation of Antiproliferative and Hemolytic Activities” (Molecules, 2025)
In brackets after ≈: the same amount, converted by molar mass. Like-named read-outs stand apart in the source and are kept apart here. Values belong to the compound of their own block, whether it stands above or below them.

How the values were obtained:
CLB-70 line = settings: cited from earlier work
[1] = system: CLB70 cell line (canine chronic B-cell lymphocytic leukemia); assay: MTT assay, antiproliferative activity against CLB70; format: cell-based; settings: for IC50: Canis lupus familiaris, CLB70, 72 h of exposure, MTT, mean ± SD; for SI CLB70: ratio IC50 NIH/3T3 / IC50 CLB70
Description: (§1) The CLB70 cell line (canine chronic B-cell lymphocytic leukemia) was established at the Department of Pharmacology and Toxicology, Wrocław University of Environmental and Life Sciences. The CLBL-1 cell line (canine B-cell lymphoma) was kindly provided by Dr. Barbara C. Rütgen from the Institute of Immunology, Department of Pathobiology, University of Veterinary Medicine, Vienna. The T-24 (human bladder carcinoma), Caco-2 (human colorectal adenocarcinoma), and NIH/3T3 (mouse embryonic fibroblasts) cell lines were purchased from the American Type Culture Collection (ATCC, Rockville, MD, USA).
(§2) Cell cultures were maintained in their respective growth media, with fetal bovine serum (FBS) concentrations ranging from 10% to 20%, depending on the cell line. Penicillin-streptomycin (PS) and L-glutamine (L-Glu) were consistently added at 1% each to all media. CLB70 cells were cultured in RPMI ADVANCE medium supplemented with 20% FBS, while CLBL-1 cells were maintained in RPMI-1640 medium with 20% FBS. T-24 cells were cultured in McCoy′s 5A medium with 10% FBS, and Caco-2 cells in Eagle′s Minimum Essential Medium (EMEM) with 20% FBS. NIH/3T3 cells were maintained in high-glucose DMEM (DMEM HG) with 10% FBS. All cell cultures were grown in T-75 flasks under a humidified atmosphere at 37 °C and 5% CO2 and passaged every 3 days to maintain optimal cell density (70–80% confluence).
(§3) Stock solutions used in the experiments were freshly prepared for each trial by dissolving the tested compounds in biological-grade DMSO. These stock solutions were then diluted with the culture medium appropriate for each specific cell line to achieve the desired final concentrations, which ranged from 3.125 to 100 µM. The final DMSO concentration in each well was maintained below 1%, a level generally considered non-toxic to cells. The MTT assay was employed to evaluate the antiproliferative and cytotoxic effects of the compounds on cancer cell lines, following a previously described protocol with minor modifications. Cells were seeded in 96-well plates at the following densities: 1.5 × 10^4 cells/mL (NIH/3T3), 2 × 10^4 cells/mL (T-24, Caco-2), and 3 × 10^5 cells/mL (CLB70, CLBL-1). Each plate included control wells with untreated cells and wells with vehicle controls (culture medium specific to each cell line).
(§4) After 72 h of treatment with the tested compounds, 10 µL of 3-(4,5-dimethylthiazol-2-yl)-2,5-diphenyltetrazolium bromide (MTT) solution (5 mg/mL) was added to each well. The cells were subsequently incubated with MTT for an additional 3 h to allow the formation of formazan crystals. Following this, 40 µL of lysis buffer (composed of 46 g sodium dodecyl sulfate, 150 mL dimethylformamide, and 183.2 mL Milli-Q water) was added to each well to dissolve the formazan. After a 24 h incubation at room temperature, the optical density (OD) of the resulting formazan product was measured using a spectrophotometric microplate reader (Spark, Tecan, Männedorf, Switzerland) at 570 nm.
(§5) The results were determined from three independent experiments (four wells each) and presented as mean IC50 value ± SD from at least […], each performed in quadruplicate. IC50 values (the concentration of the compound required to inhibit 50% of cell growth) were calculated from dose–response curves.

[2] = Quantitative hemolysis assay on red blood cells; format: cell-based; settings: human, pH 7.4; 72 h incubation, highest concentration (200 μM)
Procedure: To evaluate the hemolytic activity and cytotoxicity of the tested compounds, a quantitative hemolysis assay was conducted using human red blood cells (RBCs), following the method described by Pruchnik et al., with minor modifications.
RBCs were obtained from healthy donors through the Blood Donation Center in Wrocław. […] The collected RBCs were gently resuspended and washed three times with cold isotonic phosphate-buffered saline (PBS, pH 7.4) to remove plasma and cellular debris.
All tested compounds were dissolved in biological-grade DMSO. A series of working solutions was prepared by diluting the stock solutions to final concentrations of 6.25, 12.50, 25, 50, 100, and 200 μM. […] Control samples contained no tested compounds, while vehicle control samples contained DMSO at the same concentration as the treated samples. Positive control samples (A100%) were prepared by inducing complete hemolysis with Milli-Q water. All experiments were performed in triplicate, with three independent replicates for each condition.
The erythrocyte suspension was adjusted to a final hematocrit of 1.2% in all test tubes, with a total sample volume of 1 mL. Samples were incubated at 37 °C under static conditions for 2, 24, and 72 h to assess both short- and long-term cytotoxic effects.
Following incubation, all samples were centrifuged at 5000 rpm for 3 min at room temperature. The supernatants were carefully transferred to a 96-well plate, and the absorbance of free hemoglobin was measured at 540 nm using a UV-Vis microplate spectrophotometer (EPOCH, BioTek, Santa Clara, CA, USA). The degree of in vitro hemolysis was calculated based on the amount of released hemoglobin relative to that in the completely hemolyzed positive control sample, according to the following formula: H[%]=As/A100%×100%, where H [%] is the percentage of erythrocyte hemolysis, As is absorbance of hemoglobin in supernatant at 540 nm, and A100% refers to the absorbance of hemoglobin in the supernatant following complete hemolysis of the erythrocytes.

[3] = system: CaCo-2 (human colorectal adenocarcinoma); assay: MTT assay, antiproliferative activity against CaCo-2; format: cell-based; settings: for antiproliferative activity against CaCo-2 (in words): 72 h, up to 100 µM; for antiproliferative activity against CaCo-2 (in words) / IC50: MTT; for IC50: Homo sapiens, Caco-2, 72 h of exposure, mean ± SD; for SI CaCo-2: ratio IC50 NIH/3T3 / IC50 CaCo-2
Description: as §1, §2, §3, §4, §5

[4] = system: T-24 (human bladder carcinoma); assay: MTT assay, antiproliferative activity against T-24; format: cell-based; settings: for antiproliferative activity against T-24 (in words): 72 h, up to 100 µM; for antiproliferative activity against T-24 (in words) / IC50: MTT; for IC50: Homo sapiens, 72 h of exposure, mean ± SD; for SI T-24: ratio IC50 NIH/3T3 / IC50 T-24
Description: as §1, §2, §3, §4, §5

[5] = system: CLBL-1 cell line (canine B-cell lymphoma); assay: MTT assay, antiproliferative activity against CLBL-1; format: cell-based; settings: for IC50: Canis lupus familiaris, CLBL-1, 72 h of exposure, MTT, mean ± SD; for SI CLBL-1: ratio IC50 NIH/3T3 / IC50 CLBL-1
Description: as §1, §2, §3, §4, §5

[6] = system: NIH/3T3 (mouse embryonic fibroblasts); assay: MTT assay, normal cell line NIH/3T3; format: cell-based; settings: NIH3T3, 72 h of exposure
Description: as §1, §2, §3, §4, §5

T-24 cell line = system: T-24 cell line; design: method as in earlier work; settings: 48 h of incubation; cited from earlier work
Caco-2 line = system: Caco-2 line; design: method as in PMID 33198146; settings: 48 h of incubation; cited from earlier work
CLBL-1 = settings: 72 h of incubation; cited from earlier work

SMILES: Cc1ccc(C)c([C@H]2CC(=O)O[C@@H](C)[C@@H]2Br)c1 (single isomer, unassigned)
- IC50 (CLB-70 line; previously studied analog, reference not given, read-out: IC50 CLB70): 106 µM

SMILES: COc1cccc2c1C(=O)c1c(O)c3c(c(O)c1C2=O)C[C@@](O)(C(=O)CO)C[C@@H]3O[C@H]1C[C@H](N)[C@H](O)[C@H](C)O1 [doxorubicin]
- IC50 (CLB-70 line; 48 h of incubation): 0.07 µM
- IC50 (T-24 cell line): 0.06 µM
- IC50 Caco-2 (Caco-2 line): 2.41 µg/mL (≈ 4.43 µM)
- IC50 (CLBL-1): < 0.09 µM

SMILES: COc1cc(C=O)ccc1O [compound 1, Vanillin]
- IC50 [1]: 72.8 ± 2.3 µM
- SI CLB70 [1]: >1.4
- antiproliferative activity against CaCo-2 (in words) [3]: inactive
- IC50 [3]: > 100 µM
- IC50 [4]: 48.5 ± 13.2 µM
- SI T-24 [4]: >2.1
- IC50 [5]: 72.4 ± 9.4 µM
- SI CLBL-1 [5]: >1.4 ^2
- IC50 [6]: > 100 µM

Now from value to compound, other results behind:

- IC50 [1]: 71.2 ± 11.6 µM
- IC50 [3]: 72.5 ± 19.8 µM
- IC50 [4]: > 100 µM
- IC50 [5]: 85.7 ± 15.7 µM
SMILES: COc1cc([C@H]2CC(=O)O[C@@H](C)[C@@H]2Cl)ccc1O (racemic) [12b, 5-t-Chloro-4-r-(4′-Hydroxy-3′-methoxyphenyl)-6-c-methyltetrahydropyran-2-one]
- SI CLB70 [1]: >1.4
- hemolysis at 72 h, 200 µM [2]: 10.5%
- antiproliferative activity against CaCo-2 (in words) [3]: moderate activity
- SI CaCo-2 [3]: >1.4
- antiproliferative activity against T-24 (in words) [4]: inactive
- SI CLBL-1 [5]: >1.2
- IC50 [6]: > 100 µM

- IC50 [1]: 69.7 ± 13.7 µM
- IC50 [3]: > 100 µM
- IC50 [4]: 98.1 ± 10.4 µM
- IC50 [5]: 73.6 ± 8.8 µM
SMILES: COc1cc([C@@H]2CC(=O)O[C@@H]2C(C)I)ccc1O (relative stereo) [10a, Cis-4-(4′-Hydroxy-3′-methoxyphenyl)-5-(1-iodoethyl)dihydrofuran-2-one]
- SI CLB70 [1]: >1.4
- antiproliferative activity against T-24 (in words) [4]: demonstrated activity
- SI T-24 [4]: >1.0
- SI CLBL-1 [5]: >1.4
- IC50 [6]: > 100 µM

- IC50 [1]: 75.2 ± 6.3 µM
- IC50 [3]: 88.1 ± 4.4 µM
- IC50 [4]: > 100 µM
- IC50 [5]: 76.7 ± 11.5 µM
SMILES: COc1cc([C@@H]2CC(=O)O[C@@H]2C(C)Cl)ccc1O (relative stereo) [12a, Cis-5-(1-Chloroethyl)-4-(4′-hydroxy-3′-methoxyphenyl)dihydrofuran-2-one]
- SI CLB70 [1]: >1.3
- antiproliferative activity against CaCo-2 (in words) [3]: moderate activity
- SI CaCo-2 [3]: >1.1
- antiproliferative activity against T-24 (in words) [4]: inactive
- SI CLBL-1 [5]: >1.3
- IC50 [6]: > 100 µM

- IC50 [1]: 71.5 ± 7.5 µM
- IC50 [3]: > 100 µM
- IC50 [4]: 63.4 ± 6.2 µM
- IC50 [5]: 46.3 ± 4.1 µM
SMILES: COc1cc([C@@H]2CC(=O)O[C@H]2C(C)I)ccc1O (relative stereo) [10b, Trans-4-(4′-Hydroxy-3′-methoxyphenyl)-5-(1-iodoethyl)dihydrofuran-2-one]
- SI CLB70 [1]: >1.4
- hemolysis at 72 h, 200 µM [2]: 11%
- antiproliferative activity against T-24 (in words) [4]: demonstrated activity
- SI T-24 [4]: >1.6
- SI CLBL-1 [5]: >2.2
- IC50 [6]: > 100 µM

- IC50 [1]: 76.2 ± 5.3 µM
- IC50 [3]: 76.4 ± 10 µM
- IC50 [4]: > 100 µM
- IC50 [5]: 63.2 ± 1.6 µM
SMILES: COc1cc([C@@H]2CC(=O)O[C@@H]2C(C)Br)ccc1O (relative stereo) [11a, Cis-5-(1-Bromoethyl)-4-(4′-hydroxy-3′-methoxyphenyl)dihydrofuran-2-one]
- SI CLB70 [1]: >1.3
- hemolysis at 72 h, 200 µM [2]: 10.3%
- antiproliferative activity against CaCo-2 (in words) [3]: moderate activity
- SI CaCo-2 [3]: >1.3
- antiproliferative activity against T-24 (in words) [4]: inactive
- SI CLBL-1 [5]: >1.6
- IC50 [6]: > 100 µM
